Laboratory results taken from the NIST ThermoML archive (doi:10.1016/j.fluid.2008.04.002).
± gives the expanded uncertainty stated by the source.

Conditions: Liquid, Closed cell (Static) method

SMILES | vapor or sublimation pressure (263.43 K) [kPa] | vapor or sublimation pressure (273.32 K) [kPa] | vapor or sublimation pressure (283.22 K) [kPa] | vapor or sublimation pressure (288.3 K) [kPa] | vapor or sublimation pressure (293.29 K) [kPa] | vapor or sublimation pressure (313.31 K) [kPa] | vapor or sublimation pressure (333.32 K) [kPa] | vapor or sublimation pressure (353.2 K) [kPa] | vapor or sublimation pressure (253.65 K) [kPa] | vapor or sublimation pressure (258.46 K) [kPa] | vapor or sublimation pressure (263.45 K) [kPa] | vapor or sublimation pressure (268.33 K) [kPa] | vapor or sublimation pressure (273.29 K) [kPa] | vapor or sublimation pressure (278.19 K) [kPa] | vapor or sublimation pressure (283.25 K) [kPa] | vapor or sublimation pressure (288.2 K) [kPa] | vapor or sublimation pressure (290.22 K) [kPa] | vapor or sublimation pressure (291.22 K) [kPa] | vapor or sublimation pressure (292.22 K) [kPa]
FCC(F)(F)F [1,1,1,2-tetrafluoroethane] | 195.7 ± 1 | 287.1 ± 1.2 | 407.2 ± 1.5 | 483.6 ± 1.7 | 566.3 ± 1.9 | 1014.7 ± 3.3 | 1680.4 ± 5.4 | 2636 ± 8.3 | – | – | – | – | – | – | – | – | – | – | –
FC(F)(F)C(F)(F)F [hexafluoroethane] | 1415.3 ± 4.6 | 1862 ± 6 | 2392 ± 7.6 | 2697.6 ± 8.6 | – | – | – | – | 1062.9 ± 2 | 1226.4 ± 2.2 | 1415.3 ± 2.5 | 1621.1 ± 2.8 | 1850 ± 3.2 | 2100.6 ± 3.6 | 2385.8 ± 4.1 | 2697.6 ± 4.6 | 2832.9 ± 4.8 | 2903.4 ± 5 | 2976.2 ± 5.1
